Laboratory results taken from patent publication US6492174B1, “Methods of initiating embryogenic cultures in plants” (Institute of Paper Science & Technology, priority 2000, dated 2002).

What was measured:
Format in all cases: cell-based
[1] = system: Douglas fir stage 3-5 zygotic embryos attached to megagametophytes; assay: Douglas fir initiation on solid media #121 with brassinolide, ABA, ABA pre-soak or elevated pressure
Text: The explants used in this experiment were isolated from Douglas fir cones collected in mid-summer from four open-pollinated trees, representing a multiplicity of genotypes. Explants were stage 3-5 (early-midstage) zygotic embryos attached to megagametophytes, prepared as described in Example 2. The embryo and attached megagametophyte were then placed next to each other on the treatment media. As in Example 2, each replication consisted of ten explants in a single petri dish. Each treatment contained four replications per treatment, per genotype.
The treatment media were based on solid media #121, the composition of which is described in Table 5. Media #121 contains no ABA or brassinolide. Treatment #1, the control, consisted of explants cultured on media #121 alone. In Treatment #2, explants were cultured on media #121 containing 0.1 μM brassinolide. In Treatment #3, explants were cultured on media #121 containing 1 ppm ABA. In treatment #4, explants were soaked in liquid media containing 5 ppm ABA for 30 minutes prior to being placed on #121 media. In Treatment #5, explants were cultured on media #121 under 1.5 atmospheres of pressure. The petri dishes were wrapped in PARAFILM and incubated at 23-24° C. in the dark.

[2] = system: Norway spruce zygotic embryos; assay: Norway spruce initiation on solid media #56 with ABA, brassinolide or elevated pressure, ten weeks; conditions: 1 ppm ABA added to medium #56
Method: Explants were zygotic embryos flipped out of the megagametophyte, prepared as in Example 1. The experiment consisted of five replications, with a replication consisting of ten explants in a single petri dish. Explants were cultured on solid media #56 (Table 3). Treatment #1 consisted of explants on media #56. In Treatment #2, the medium additionally contained 1 ppm ABA. In Treatment #3, the media contained […] brassinolide. In Treatment #4, the explants were cultured under 1.5 atmospheres of pressure. After ten weeks, the explants were examined and the frequency of embryogenic culture initiation was scored (Table 43).

[3] = system: Loblolly pine megagametophytes; assay: 30 minute abscisic acid soaking pre-treatment, culture on solid media #1042 with or without 0.1 μM brassinolide, eight weeks
Method: In this experiment, the effects of ovule pre-treatment by soaking with abscisic acid solutions of varying concentration was investigated. The abscisic acid treatment was tested on two media, one containing brassinolide and one lacking in brassinolide. The explants were megagametophytes from open pollinated summer cones of four individual trees, representing a multiplicity of genotypes. The seeds contained Stage 2-4 zygotic embryos. Megagametophytes were excised from sterilized seeds, as described in Example 4.
Prior to culturing, the megagametophytes were soaked for 30 minutes in liquid growth media (media #1042, Table 47, minus the gelling agent) containing 0, 5, 10 and 20 ppm abscisic acid. After soaking, the megagametophytes were placed on either one of two solid growth media. While still liquid, 2 ml media was poured into wells on a culture well plate and allowed to solidify. Half the soaked megagametophytes were placed on solid media #1042 (Table 47) and half were placed on solid media #1042 with 0.1 μM brassinolide added.
On solid media where brassinolide was present, there was a dramatic difference in extrusion and initiation between megagametophytes soaked in zero and 5 ppm ABA solutions (Treatments #5 and #6) compared to those soaked in 10 and 20 ppm ABA solutions (Treatments #7 and #8). […] In contrast, megagametophytes treated with higher amounts of ABA in Treatments 7 and 8 had the highest initiation frequencies of any treatment. […] Alternatively, there may have been an interaction between brassinolide and ABA such that low ABA plus brassinolide inhibits extrusion, with this inhibition overcome when ABA concentration is higher.

[4] = system: Loblolly pine megagametophytes; assay: Elevated pressure in combination with brassinolide, ABA pre-soak or liquid media #1038, 8 weeks; conditions: Br 0.1 μM in media #1042, ABA soak 5 ppm 30 minute
Method: The previous examples indicate that elevated pressure can enhance extrusion and initiation. This experiment was designed to test the effect of elevated pressure in combination with other treatments to determine the optimal conditions for promoting extrusion and initiation.
Megagametophytes in some treatments received a 30 minute pre-culturing soak in liquid media (#1042 minus the gelling agent) containing 5 ppm ABA. Megagametophytes in Treatments 9 and 10 were fully immersed in liquid media #1038. The experiment consisted of three replications per treatment, per genotype.
Five different treatments were used, each cultured under 1.0 or 1.5 atmospheres for a total of ten treatments (See Table 33).
After 8 weeks culturing, the treatments were scored. Extrusion and initiation were increased by elevated pressure in all treatments.

[5] = genotype 7-1051, 5 ppm ABA/No Br
[6] = genotype 7-1051, 10 ppm ABA/No Br
[7] = genotype 7-1051, 20 ppm ABA/No Br
[8] = genotype M7-56, 5 ppm ABA/No Br
[9] = genotype M7-56, 10 ppm ABA/No Br
[10] = genotype M7-56, 20 ppm ABA/No Br
[11] = genotype TC5-1501, 5 ppm ABA/No Br
[12] = genotype TC5-1501, 10 ppm ABA/No Br
[13] = genotype TC5-1501, 20 ppm ABA/No Br
[14] = genotype TC11-109, 5 ppm ABA/No Br
[15] = genotype TC11-109, 10 ppm ABA/No Br
[16] = genotype TC11-109, 20 ppm ABA/No Br
[17] = genotype 7-100, + Pressure 1.5 atm
[18] = genotype 11-1095, + Pressure 1.5 atm
[19] = genotype 21-6, + Pressure 1.5 atm

CC1=CC(=O)CC(C)(C)C1(O)/C=C/C(C)=C\C(=O)O (stereo not shown) [ABA, 5-(1-hydroxy-2,6,6,-trimethyl-4-oxo-2-cyclohexen-1-yl)-3-methyl-2,4-penta dienoic acid]
% of Megagametophytes Initiating - Mean ([1]; genotype T0232l, +1 ppm ABA in media #121): 21.1% | % of Megagametophytes Initiating - Mean ([1]; genotype T0232l, ABA pre-soak (5 ppm, 30 minutes)): 27.6% | % of Megagametophytes Initiating - Mean ([1]; genotype T0235l, +1 ppm ABA in media #121): 10.5% | % of Megagametophytes Initiating - Mean ([1]; genotype T0235l, ABA pre-soak (5 ppm, 30 minutes)): 25.0% | % of Megagametophytes Initiating - Mean ([1]; genotype T0293l, +1 ppm ABA in media #121): 34.6% | % of Megagametophytes Initiating - Mean ([1]; genotype T0293l, ABA pre-soak (5 ppm, 30 minutes)): 26.9% | % of Megagametophytes Initiating - Mean ([1]; genotype T0525l, +1 ppm ABA in media #121): 10.0% | % of Megagametophytes Initiating - Mean ([1]; genotype T0525l, ABA pre-soak (5 ppm, 30 minutes)): 20.0% | % of Megagametophytes Initiating - Mean ([1]; total, +1 ppm ABA in media #121): 19.1% | % of Megagametophytes Initiating - Mean ([1]; total, ABA pre-soak (5 ppm, 30 minutes)): 24.6% | % Initiating (std. error) [2]: 47.4 (5.5) % | % Megagametophytes Extruding [3, 5]: 53.3 (8.8) % | Embryogenic Culture Initiation - % Megagametophytes Extruding [3, 5]: 20.0 (10.0) % | % Megagametophytes Extruding [3, 6]: 30.0 (5.8) % | Embryogenic Culture Initiation - % Megagametophytes Extruding [3, 6]: 6.7 (3.3) % | % Megagametophytes Extruding [3, 7]: 40.0 (5.8) % | Embryogenic Culture Initiation - % Megagametophytes Extruding [3, 7]: 13.3 (3.3) % | % Megagametophytes Extruding [3, 8]: 20.0 (5.8) % | Embryogenic Culture Initiation - % Megagametophytes Extruding [3, 8]: 13.3 (3.3) % | % Megagametophytes Extruding [3, 9]: 26.7 (6.7) % | Embryogenic Culture Initiation - % Megagametophytes Extruding [3, 9]: 13.3 (3.3) % | % Megagametophytes Extruding [3, 10]: 36.7 (8.8) % | Embryogenic Culture Initiation - % Megagametophytes Extruding [3, 10]: 6.7 (6.7) % | % Megagametophytes Extruding [3, 11]: 33.3 (6.7) % | Embryogenic Culture Initiation - % Megagametophytes Extruding [3, 11]: 10.0 (0.0) % | % Megagametophytes Extruding [3, 12]: 16.7 (8.8) % | Embryogenic Culture Initiation - % Megagametophytes Extruding [3, 12]: 3.3 (3.3) % | % Megagametophytes Extruding [3, 13]: 40.0 (11.5) % | Embryogenic Culture Initiation - % Megagametophytes Extruding [3, 13]: 6.7 (3.3) % | % Megagametophytes Extruding [3, 14]: 33.3 (3.3) % | Embryogenic Culture Initiation - % Megagametophytes Extruding [3, 14]: 10.0 (5.8) % | % Megagametophytes Extruding [3, 15]: 46.7 (13.3) % | Embryogenic Culture Initiation - % Megagametophytes Extruding [3, 15]: 13.3 (3.3) % | % Megagametophytes Extruding [3, 16]: 46.7 (12.0) % | Embryogenic Culture Initiation - % Megagametophytes Extruding [3, 16]: 13.3 (3.3) % | promotion of extrusion or initiation ([3]; soaking pretreatment, media where no brassinolide was present (Treatments #1-4)): did not promote extrusion or initiation | % Megagametophytes Extruding ([3]; total, 5 ppm ABA/No Br): 35.0% | Embryogenic Culture Initiation - % Megagametophytes Extruding ([3]; total, 5 ppm ABA/No Br): 13.3% | % Megagametophytes Extruding ([3]; total, 10 ppm ABA/No Br): 30.0% | Embryogenic Culture Initiation - % Megagametophytes Extruding ([3]; total, 10 ppm ABA/No Br): 9.2% | % Megagametophytes Extruding ([3]; total, 20 ppm ABA/No Br): 40.9% | Embryogenic Culture Initiation - % Megagametophytes Extruding ([3]; total, 20 ppm ABA/No Br): 10.0% | % Megagametophytes Extruding ([4]; Total, 1.0 atm): 38.4% | % Megagametophytes Initiating ([4]; Total, 1.0 atm): 21.5% | % Megagametophytes Extruding ([4]; Total, + Pressure 1.5 atm): 46.7% | % Megagametophytes Initiating ([4]; Total, + Pressure 1.5 atm): 24.4% | % Megagametophytes Extruding ([4]; genotype 7-100, 1.0 atm): 10.0 (5.8) % | % Megagametophytes Initiating ([4]; genotype 7-100, 1.0 atm): 3.3 (3.3) % | % Megagametophytes Extruding [4, 17]: 23.3 (13.3) % | % Megagametophytes Initiating [4, 17]: 3.3 (3.3) % | % Megagametophytes Extruding ([4]; genotype 11-1095, 1.0 atm): 50.0 (0.0) % | % Megagametophytes Initiating ([4]; genotype 11-1095, 1.0 atm): 23.3 (6.7) % | % Megagametophytes Extruding [4, 18]: 50.0 (5.8) % | % Megagametophytes Initiating [4, 18]: 20.0 (5.8) % | % Megagametophytes Extruding ([4]; genotype 21-6, 1.0 atm): 55.2 (8.7) % | % Megagametophytes Initiating ([4]; genotype 21-6, 1.0 atm): 37.8 (11.8) % | % Megagametophytes Extruding [4, 19]: 66.7 (8.8) % | % Megagametophytes Initiating [4, 19]: 50.0 (11.5) %
